Measured values as given in patent US20060025485A1, “Hydroxybenazamide compounds for treatment of cancer” (priority 2004, published 2006).
Entries after “also recorded” stand apart in the source; their conditions may differ. Where two headings read alike, the source gives them in different places.

What was measured:
p-MAPK [1] = experiment: Western blot of p-MAPK, MiaPaCa-2 cells; assay type: cell-based; settings: all concentrations tested
Source text: (§1) The results were assay using standard MTT, Western blot and cytoxocity assays.

Chromogranin A = experiment: Western analysis of CgA, BON cells; assay type: cell-based, human; settings: 20 to 100 μM, 2 days
Procedure: (§2) ZM 336372 treatment. H727 and BON cells were plated at 50-60% confluence in 100 mm cell culture dishes and incubated overnight.
(§3) Western blot analysis. Cellular extracts were prepared and quantified by BCA protein assay kit (Pierce, Rockford, Ill.) as previously described (Sippel et al., 2003). 30-50 μg of denatured proteins from each sample underwent electrophoresis on a SDS-polyacrylamide gel and transferred to a nitrocellulose membranes (Schleicher and Schuell, Keene, N.H.). Membranes were blocked for 1 hr in milk solution (1×PBS, 5% non-fat dry milk, 0.05% Tween-20) and then incubated at 4° C. overnight with primary antibodies. The following primary antibody dilutions were used: phospho-ERK 1/2 (1:1,000); phospho-MEK (1:1,000); phospho-Raf-1 (Serine338) (1:1,000); p21 and p18, (1:1,000); (Cell Signal Technology, Beverly, Mass.), Chromogranin A (1:2,000; Zymed Laboratories, San Francisco, Calif.); MASH-1 (1:1000, BD Pharmingen) and G3PDH (1:10,000; Trevigen, Gaithersburg, Md.). After primary antibody incubation, membranes were washed 3×5 min in PBS-T wash buffer (1×PBS, 0.05% Tween 20). Then the membranes were incubated with either 1:2,000 dilution of goat anti-rabbit or goat anti-mouse secondary antibody (Cell Signal Technology, Beverly, Mass.) depending on the source of the primary antibody for 1 hr at room temperature. […]

p-MAPK [2] = experiment: Western blot of p-MAPK, Panc-1 cells; assay type: cell-based; settings: all concentrations tested
Source text: as §1

pMEK and p-MAPK [3] = experiment: Western blot of pMEK and p-MAPK, HT-29 cells; assay type: cell-based
Source text: as §1

[4] = test system: BON pancreatic carcinoid cells; experiment: MTT cell proliferation assay, BON cells; assay type: cell-based, human; settings: 100 μM, to day 10, versus DMSO
Procedure: MTT Cell Proliferation Assay. […] Cells were trypsinized and plated in triplicate to 24 wells plates and allowed to adhere overnight. […] Cells were incubated and maintained with change of treatments at 2 days. Cell growth rates were analyzed after the addition of MTT reagent to the cultured cells following manufacturer's instructions. Absorbance was determined using spectrophotometer at a wave length of 540 nm.

MiaPaCa-2 = MiaPaCa-2 MTT Assay; assay type: cell-based; settings: MiaPaCa-2, three concentrations
Raf-1/MEK/ERK [5] = experiment: Western analysis of Raf-1 pathway activation, BON cells; assay type: cell-based, human; settings: 2 days
Procedure: (§4) H727 and BON cells were plated at 50-60% confluence in 100 mm cell culture dishes and incubated overnight.
(§5) Western blot analysis. Cellular extracts were prepared and quantified by BCA protein assay kit (Pierce, Rockford, Ill.) as previously described (Sippel et al., 2003). 30-50 μg of denatured proteins from each sample underwent electrophoresis on a SDS-polyacrylamide gel and transferred to a nitrocellulose membranes (Schleicher and Schuell, Keene, N.H.). Membranes were blocked for 1 hr in milk solution (1×PBS, 5% non-fat dry milk, 0.05% Tween-20) and then incubated at 4° C. overnight with primary antibodies. The following primary antibody dilutions were used: phospho-ERK 1/2 (1:1,000); phospho-MEK (1:1,000); phospho-Raf-1 (Serine338) (1:1,000); p21 and p18, (1:1,000); (Cell Signal Technology, Beverly, Mass.), Chromogranin A (1:2,000; Zymed Laboratories, San Francisco, Calif.); MASH-1 (1:1000, BD Pharmingen) and G3PDH (1:10,000; Trevigen, Gaithersburg, Md.). After primary antibody incubation, membranes were washed 3×5 min in PBS-T wash buffer (1×PBS, 0.05% Tween 20). Then the membranes were incubated with either 1:2,000 dilution of goat anti-rabbit or goat anti-mouse secondary antibody (Cell Signal Technology, Beverly, Mass.) depending on the source of the primary antibody for 1 hr at room temperature. Membranes were washed 3×5 min in PBS-T wash buffer and developed by Immunstar™ HRP (Bio-Rad Laboratories, Hercules, Calif.) according to the manufacturer's directions. For the detection of hASH1 protein, membranes were developed with SuperSignal West Femto chemiluminescence reagent (Pierce).

H727 cells [6] = test system: H727 cells
Procedure: Cells tested (H727 and BON) were harvested by trypsinization and plated at a cell density of 3,000 cells/well of each microtiter plate. Cells were grown for 4 hrs at 37° C., with 5% CO2 in a humidified incubator to allow cell attachment to occur before compound addition. […] 10 μl of each compound stock was added to duplicate microtiter plates for each cell line. The final concentration of DMSO in all wells was 1%. To test 200 μM, 2% DMSO was added to each well. Data was compared to the effect of 2% DMSO. All compounds were tested in duplicate. Cells were incubated with the test compounds for 72 hrs before reading the assay. Then processing and calculation were performed according to manufacturer's directions for Cell Titer Glo Assay (Promega, Madison, Wis.).

Panc-1 = Panc-1 MTT Assay; assay type: cell-based; set-up: dose or concentration left out as unconfirmed; settings: Panc-1, three concentrations
pMEK and p-MAPK [7] = experiment: Western blot of pMEK and p-MAPK, HepG2 cells; assay type: cell-based
Source text: as §1

Raf-1/MEK/ERK [8] = experiment: Western analysis of Raf-1 pathway activation, H727 cells; assay type: cell-based, human
Procedure: as §4, §5

[9] = test system: HepG2 cells, a hepatocellular cancer cell line; experiment: cell morphology after 9-day treatment, HepG2 cells; assay type: cell-based
Source text: as §1

raf-1 = settings: cited from earlier work
hASH1 = experiment: Western analysis of hASH1, BON cells; assay type: cell-based, human; settings: 20 μM and 100 μM, 2 days
Procedure: as §2, §3

[10] = test system: H727 pulmonary carcinoid cells; experiment: cell culture pictures of H727 cells; assay type: cell-based, human; settings: 100 μM, days 2, 4 and 6, versus DMSO
Procedure: Cell culture. Human pulmonary carcinoid cells (NCI-H727) were obtained from American Type Culture Collection (Manassas, Va.) and human pancreatic carcinoid tumor cells, BON a generous gift of Drs. Evers and Townsend (Parekh et al., 1994), were maintained in RPMI 1640 and D-MEM-F12 media (Life Technologies, Rockville, Md.) respectively supplemented with 10% Fetal Bovine Serum (Sigma, St. Louis, Mo.), 100 IU/ml penicillin and 100 μg/ml streptomycin (Life Technologies) in a humidified atmosphere of 5% CO2 in air at 37° C. The maintenance of BON-raf cells and the activation of Raf-1 were followed as described previously (Sippel et al., 2003; Sippel and Chen, 2002; McMahon, 2001).
as §2

[11] = Drug toxicity assay, propidium iodide exclusion, H727 cells; assay type: cell-based, human; settings: human, 500 μM, 2 days, compared to native H727 cells, read-out: viable cells by PI exclusion
Procedure: (§6) Drug Toxicity Assay. Briefly, cells were trypsinized and plated in a 6-well plate at 1-2×10^6 in triplicate and allowed to adhere overnight. […] As a control, DMSO was added. After incubation, the media was removed and cells were trypsinized and added to removed media. Cells were incubated on ice and 2.5 μg/ml Propidium Iodide (Sigma, St. Louis, Mo.) was added five minutes before flow cytometry (Ballestrero et al., 2004). Data was acquired using a FACSCalibur benchtop flow cytometer (Becton Dickenson, San Jose, Calif.) using CellQuest acquisition and analysis software.

H727 cells [12] = experiment: as above; assay type: cell-based, human
Procedure: as §6

## Cc1ccc(NC(=O)c2cccc(N(C)C)c2)cc1NC(=O)c1ccc(O)cc1 [ZM336372, N-[5-(dimethyl-aminobensamido)-2-methylphenyl]-4-hydroxybenzamide]
p-MAPK [1]
  p-MAPK level: increase in p-MAPK following treatment at all concentrations tested
Chromogranin A
  CgA (chromogranin) level: decreased secretion of chromogranin; also recorded: reduction in both CgA and hASH1; also recorded: decreasing expression of chromogranin at higher concentrations; also recorded: dose dependent decrease
p-MAPK [2]
  p-MAPK level: increase in p-MAPK following treatment at all concentrations tested
pMEK and p-MAPK [3]
  p-MAPK level: increase in the levels of both pMEK and p-MAPK
  pMEK level: increase in the levels of both pMEK and p-MAPK
[4]
  BON cell proliferation/metabolism (MTT): lack of cell metabolism; also recorded: clear suppression of growth; also recorded: growth suppression occurred as early as day 4 and was maintained out to day 10; also recorded: inhibited
MiaPaCa-2
  cellular proliferation (MTT): inhibition at the highest concentration; also recorded: reduction of cellular proliferation
Raf-1/MEK/ERK [5]; 20 μM and 100 μM
  phosphorylated Raf-1 at serine 338 (pRaf-1): dose dependent increases
Raf-1/MEK/ERK [5]; 20 to 100 μM
  phosphorylated ERK 1/2 (pERK, pMAPK): increased phosphorylation of both MEK and MAPK; also recorded: strong activation of ERK 1/2 and MEK 1/2; also recorded: increasing phosphorylated MEK and MAP kinase; also recorded: dose dependent increases
  phosphorylated MEK 1/2 (pMEK): increased phosphorylation of both MEK and MAPK; also recorded: strong activation of ERK 1/2 and MEK 1/2; also recorded: increasing phosphorylated MEK and MAP kinase; also recorded: dose dependent increases
BON cells
  IC50 (cytotoxicity): did not produce enough cellular cytotoxicity to estimate an IC50
H727 cells [6]
  IC50 (cytotoxicity): did not produce enough cellular cytotoxicity to estimate an IC50
Panc-1
  cellular proliferation (MTT): inhibition at the highest concentration; also recorded: clear decrease
pMEK and p-MAPK [7]
  p-MAPK level: increase in the levels of both pMEK and p-MAPK
  pMEK level: increase in the levels of both pMEK and p-MAPK
Raf-1/MEK/ERK [8]; 20 μM and 100 μM, 2 days
  phosphorylated ERK 1/2 (pERK, pMAPK): elevated phosphorylated MAPK; also recorded: activation of MEK 1/2 and ERK 1/2; also recorded: dose dependent increases
  phosphorylated MEK 1/2 (pMEK): activation of MEK 1/2 and ERK 1/2; also recorded: dose dependent increases
  phosphorylated Raf-1 at serine 338 (pRaf-1): phosphorylated at serine 338; also recorded: dose dependent increases
Raf-1/MEK/ERK [8]; 100 μM, days 2, 4 and 6
  phosphorylated MEK 1/2 over time: prolonged; also recorded: greater than controls out to 6 days
[9]; HepG2, 100 μM, 9-day cycle
  cell death: significant cell death
[9]; HepG2, 50 microM, day 9, versus DMSO control
  cell growth in culture: clear difference in cell growth
[9]; HepG2, low concentrations, 9-day cycle
  cytopathology: cytopathology at low concentrations
raf-1; COS1 cells
  activation of raf-1: > 100 fold
raf-1; NIH3T3 cells
  activation of raf-1: > 100 fold
raf-1; PC12 cells
  activation of raf-1: > 100 fold
raf-1; Swiss 3T3 cells
  raf-1 activation compared with EGF stimulation: much higher than that attained after stimulation with epidermal growth factor (EGF)
  time for which induction of raf-1 was sustained: at least 3 hours
  time of exposure after which induction of raf-1 occurred: 60 min
raf-1; human 293 cells
  activation of raf-1: > 100 fold
hASH1
  hASH1 level: reduction in both CgA and hASH1; also recorded: dose dependent decrease
[10]
  growth of H727 cells in culture: never reached confluence; also recorded: clear difference in growth; also recorded: paucity of cells reaching confluence
[11]
  viability at 2 days, 500 µM: 40 to 50%
H727 cells [12]; 20-100 μM
  cytolysis: less than 20%
H727 cells [12]; 20 to 100 μM, 2 days, compared to DMSO
  viability by PI exclusion: significant viability was maintained
